10 compounds from ChEMBL document CHEMBL1127118 (Bioorg Med Chem Lett, 1993) can be followed below.

In experiment [1] the target is T1, 5-hydroxytryptamine receptor 1A (Rattus norvegicus, UniProt P19327).
T1 sequence (P19327 whole entry): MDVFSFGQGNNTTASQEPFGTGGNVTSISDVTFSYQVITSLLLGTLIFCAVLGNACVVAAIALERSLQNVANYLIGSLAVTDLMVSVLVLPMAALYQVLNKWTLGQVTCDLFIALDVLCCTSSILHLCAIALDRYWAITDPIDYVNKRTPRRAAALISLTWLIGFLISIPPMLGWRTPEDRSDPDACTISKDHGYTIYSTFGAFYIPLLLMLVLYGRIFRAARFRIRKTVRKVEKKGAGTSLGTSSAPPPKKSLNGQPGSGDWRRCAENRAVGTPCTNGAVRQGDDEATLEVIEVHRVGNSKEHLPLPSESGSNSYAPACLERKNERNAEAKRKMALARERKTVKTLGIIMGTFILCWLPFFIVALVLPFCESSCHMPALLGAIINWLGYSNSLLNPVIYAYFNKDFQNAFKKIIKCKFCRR
As to the kind of experiment: Displacement of [3H]8-OH-DPAT from rat hippocampal 5-hydroxytryptamine 1A receptor. The format is tissue-based, Hippocampus. (In a radioligand displacement assay an active substance lowers the binding of a labelled ligand.)

Experiment [2] concerns the target 5-hydroxytryptamine receptor 1B (Rattus norvegicus, UniProt P28564). Nature of the experiment: Binding affinity against 5-hydroxytryptamine 1B receptor in rat striatal membranes using [3H]5-HT as radioligand. The format is cell membranes, Striatum, Membrane.
The target of experiment [3] is T1, 5-hydroxytryptamine receptor 1A. As to the kind of experiment: The compound was evaluated for binding affinity against 5-hydroxytryptamine 1A receptor in rat hippocampal membranes using [3H]8-OH-DPAT as radioligand in the presence of 1 mM of MnCl2. The format is cell membranes, Hippocampus.
Experiment [4] has the same target. As to the kind of experiment: The compound was evaluated for binding affinity against 5-hydroxytryptamine 1A receptor in rat hippocampal membranes using [3H]8-OH-DPAT as radioligand in the presence of 3*10e-5 M GTP gamma S. The format is cell membranes, Hippocampus.

Several values for one entry are separate records, joined by “and”; a condition that tells them apart may be missing. Identical values can stand only once. A value given as a limit tells only on which side of the number the result lay.

Chain of 5-hydroxytryptamine receptor 1B (P28564 whole entry): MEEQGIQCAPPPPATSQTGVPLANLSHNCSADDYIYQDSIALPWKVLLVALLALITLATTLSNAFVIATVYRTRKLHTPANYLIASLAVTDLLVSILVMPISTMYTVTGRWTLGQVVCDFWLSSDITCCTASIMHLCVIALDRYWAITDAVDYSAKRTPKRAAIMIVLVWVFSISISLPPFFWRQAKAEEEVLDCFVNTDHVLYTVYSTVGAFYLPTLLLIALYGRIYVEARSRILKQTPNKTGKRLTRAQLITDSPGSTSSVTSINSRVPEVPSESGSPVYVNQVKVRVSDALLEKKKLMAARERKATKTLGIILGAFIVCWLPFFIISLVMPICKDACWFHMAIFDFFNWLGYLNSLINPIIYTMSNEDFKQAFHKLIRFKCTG

In the case of `COc1c2c(cc3ccccc13)CCC(N)C2` (stereo not drawn), the values for the Ki in experiment [1] and in experiment [2] were 2520 nM and 23 nM, respectively.
`COc1cc2ccccc2c2c1CC(N)CC2` (stereo not drawn): the figures for the Ki in experiment [1] and in experiment [2] were 1060 nM and 76.3 nM, respectively.
Regarding `CCCN(CCC)C1CCc2c(C)ccc(O)c2C1` (stereo not drawn), the Ki in experiment [1] is 18.4 nM and 30.8 nM; in experiment [3], 46.6 nM; in experiment [4], 81.1 nM; in experiment [2], more than 10000 nM.
On to `CCCN(CCC)C1CCc2cccc(OC)c2C1` (stereo not drawn), for which the Ki in experiment [1] is 3.05 nM; in experiment [2], 3970 nM.
The matching figures for `CCCN(CCC)C1CCc2c(c(OC)cc3ccccc23)C1` (stereo not drawn): 1300 nM and 6340 nM.
Take `CCCN(CCC)C1CCc2c(C)ccc(OC)c2C1` (stereo not drawn): the Ki came to 115 nM in experiment [1] and 575 nM in experiment [2].
The matching figures for `COc1ccc(C)c2c1CC(N)CC2` (stereo not drawn): 436 nM and more than 10000 nM.
On the same counts, the results for `COc1cccc2c1CC(N)CC2` (stereo not drawn) are 158 nM and 902 nM.
`CC(C)(C)NCC(O)COc1cccc2c1SCCC2` (stereo not drawn) [TERTATOLOL]: the inhibition constant Ki in experiment [1] is 18.2 nM; in experiment [3], 7.71 nM; in experiment [4], 37.6 nM.
As for `CCCN(CCC)C1CCc2cc3ccccc3c(O)c2C1` (stereo not drawn), the Ki in experiment [1] is 2520 nM; in experiment [2], more than 1000 nM.

The term Ki denotes the equilibrium dissociation constant of an inhibitor or competing ligand from its target.
